Reference: BindingDB's records for patent US9062048 (Janssen Pharmaceutica, 2015)

Target: C-C chemokine receptor type 2 (Homo sapiens, UniProt P41597)
Test: Receptor Binding Assay

Sequence of C-C chemokine receptor type 2 (P41597 whole entry): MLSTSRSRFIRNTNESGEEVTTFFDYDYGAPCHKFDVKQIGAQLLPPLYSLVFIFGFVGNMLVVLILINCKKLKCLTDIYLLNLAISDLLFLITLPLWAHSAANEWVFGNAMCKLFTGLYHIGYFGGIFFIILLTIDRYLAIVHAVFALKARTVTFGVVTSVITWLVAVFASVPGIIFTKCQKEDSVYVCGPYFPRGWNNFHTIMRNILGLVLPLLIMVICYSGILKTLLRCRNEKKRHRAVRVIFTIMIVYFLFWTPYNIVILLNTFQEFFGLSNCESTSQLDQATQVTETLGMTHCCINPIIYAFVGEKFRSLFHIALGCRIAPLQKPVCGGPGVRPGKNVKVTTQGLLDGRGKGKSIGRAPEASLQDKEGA

An IC50 of 172 nM was found for C[S+]([O-])CC(O)[C@H]1CC[C@@H](N2CC(NC(=O)CNc3ncnc4ccc(C(F)(F)F)cc34)C2)CC1 (some centres not stated) [US9062048, 21] in this work.

An IC50 of 1230 nM was found for CCC(NC(=O)NC)[C@H]1CC[C@@H](N2CC(NC(=O)CNc3ncnc4ccc(C(F)(F)F)cc34)C2)CC1 (some centres not stated) [US9062048, 142] in this work.
